Read-outs that look alike come from different tables or passages of the source. Positions of bridges follow the written chain, without caps; N, C: chain ends. Non-standard residues stand in square brackets, D forms with d. Residues, ends and D or L forms follow the SMILES beside them. 1Nal = N[C@@H](Cc1cccc2ccccc12)C(=O)O Some results are limits rather than exact numbers.

The results in this text go back to patent US9340590B2 (priority 2011, dated 2016).

Experiment in all cases: cell-based
The target in one experiment is hNav1.3 (Homo sapiens, UniProt Q9NY46). As to conditions: IonWorks Quattro, read-out: IWQ Use Nav1.3.
Chain of hNav1.3 (Q9NY46 whole entry, looked up): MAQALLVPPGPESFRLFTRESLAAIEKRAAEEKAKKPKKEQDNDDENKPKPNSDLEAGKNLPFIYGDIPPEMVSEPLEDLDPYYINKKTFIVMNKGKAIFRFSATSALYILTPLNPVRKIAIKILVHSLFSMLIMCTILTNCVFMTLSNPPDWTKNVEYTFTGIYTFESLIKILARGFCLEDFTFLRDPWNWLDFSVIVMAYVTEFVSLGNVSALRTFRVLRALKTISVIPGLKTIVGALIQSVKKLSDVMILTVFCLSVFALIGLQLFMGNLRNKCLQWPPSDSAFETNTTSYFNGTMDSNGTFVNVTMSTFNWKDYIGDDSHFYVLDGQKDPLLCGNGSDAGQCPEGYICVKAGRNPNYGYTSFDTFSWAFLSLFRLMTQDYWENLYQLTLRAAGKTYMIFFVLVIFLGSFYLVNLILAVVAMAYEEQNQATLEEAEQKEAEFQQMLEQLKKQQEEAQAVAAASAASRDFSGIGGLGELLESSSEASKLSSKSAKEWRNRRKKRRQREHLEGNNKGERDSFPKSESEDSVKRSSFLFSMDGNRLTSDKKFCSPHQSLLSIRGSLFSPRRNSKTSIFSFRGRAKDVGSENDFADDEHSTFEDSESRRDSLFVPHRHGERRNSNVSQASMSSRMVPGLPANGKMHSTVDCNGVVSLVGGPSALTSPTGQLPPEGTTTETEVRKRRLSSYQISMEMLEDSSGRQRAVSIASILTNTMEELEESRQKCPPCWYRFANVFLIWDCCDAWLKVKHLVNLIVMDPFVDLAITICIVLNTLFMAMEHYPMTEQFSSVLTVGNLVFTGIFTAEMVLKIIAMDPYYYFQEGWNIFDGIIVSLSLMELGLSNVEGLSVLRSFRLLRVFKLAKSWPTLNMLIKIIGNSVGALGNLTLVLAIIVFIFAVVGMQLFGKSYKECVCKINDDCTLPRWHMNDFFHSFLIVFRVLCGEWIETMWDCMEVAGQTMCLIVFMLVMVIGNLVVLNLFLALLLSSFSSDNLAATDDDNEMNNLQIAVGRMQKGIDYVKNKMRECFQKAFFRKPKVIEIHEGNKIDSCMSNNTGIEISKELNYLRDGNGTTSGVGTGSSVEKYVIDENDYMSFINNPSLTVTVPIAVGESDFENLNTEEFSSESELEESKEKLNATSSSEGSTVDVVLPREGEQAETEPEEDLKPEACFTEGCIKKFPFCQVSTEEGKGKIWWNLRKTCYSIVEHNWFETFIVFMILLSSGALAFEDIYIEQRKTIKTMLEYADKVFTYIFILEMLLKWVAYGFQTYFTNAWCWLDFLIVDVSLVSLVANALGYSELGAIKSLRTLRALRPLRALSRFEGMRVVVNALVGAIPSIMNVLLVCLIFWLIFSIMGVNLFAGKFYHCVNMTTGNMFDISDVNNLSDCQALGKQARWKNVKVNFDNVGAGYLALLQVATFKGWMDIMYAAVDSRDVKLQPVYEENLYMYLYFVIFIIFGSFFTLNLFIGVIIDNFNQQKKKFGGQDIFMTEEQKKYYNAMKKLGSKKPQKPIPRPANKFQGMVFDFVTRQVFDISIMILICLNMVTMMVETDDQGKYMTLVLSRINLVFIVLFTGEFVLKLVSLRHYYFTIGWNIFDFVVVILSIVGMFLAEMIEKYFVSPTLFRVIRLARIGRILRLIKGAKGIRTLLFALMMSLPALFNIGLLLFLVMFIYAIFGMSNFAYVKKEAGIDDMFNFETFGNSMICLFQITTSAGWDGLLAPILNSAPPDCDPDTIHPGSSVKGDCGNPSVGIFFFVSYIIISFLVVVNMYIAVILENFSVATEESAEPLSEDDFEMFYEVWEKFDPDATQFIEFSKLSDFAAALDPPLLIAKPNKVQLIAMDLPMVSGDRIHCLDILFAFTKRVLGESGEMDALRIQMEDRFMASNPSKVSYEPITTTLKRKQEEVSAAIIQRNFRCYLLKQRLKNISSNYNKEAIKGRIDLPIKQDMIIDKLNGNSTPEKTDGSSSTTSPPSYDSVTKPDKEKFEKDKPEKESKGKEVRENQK
A further experiment has as its target hNav1.5 (Homo sapiens, UniProt Q14524).
Another experiment concerns the target hNav1.7 (Homo sapiens, UniProt Q15858). It is filed as cell-based. The note with it: IonWorks Quattro. On the technique in general: The patch-clamp technique gives a direct electrical read-out from membranes.
The mark [1] stands for this setting: IonWorks Quattro, use-dependent, […], read-out: IWQ Use Nav1.5.
[2] abbreviates: use-dependent, […], read-out: IWQ Use Nav1.7 (μm).
The mark [3] stands for this setting: IonWorks Quattro, use-dependent block, hNav1.5, read-out: IWQ Use Nav1.5.
The mark [4] stands for this setting: use-dependent block, hNav1.7, read-out: IWQ Use Nav1.7.

Chain of hNav1.7 (Q15858 whole entry, looked up): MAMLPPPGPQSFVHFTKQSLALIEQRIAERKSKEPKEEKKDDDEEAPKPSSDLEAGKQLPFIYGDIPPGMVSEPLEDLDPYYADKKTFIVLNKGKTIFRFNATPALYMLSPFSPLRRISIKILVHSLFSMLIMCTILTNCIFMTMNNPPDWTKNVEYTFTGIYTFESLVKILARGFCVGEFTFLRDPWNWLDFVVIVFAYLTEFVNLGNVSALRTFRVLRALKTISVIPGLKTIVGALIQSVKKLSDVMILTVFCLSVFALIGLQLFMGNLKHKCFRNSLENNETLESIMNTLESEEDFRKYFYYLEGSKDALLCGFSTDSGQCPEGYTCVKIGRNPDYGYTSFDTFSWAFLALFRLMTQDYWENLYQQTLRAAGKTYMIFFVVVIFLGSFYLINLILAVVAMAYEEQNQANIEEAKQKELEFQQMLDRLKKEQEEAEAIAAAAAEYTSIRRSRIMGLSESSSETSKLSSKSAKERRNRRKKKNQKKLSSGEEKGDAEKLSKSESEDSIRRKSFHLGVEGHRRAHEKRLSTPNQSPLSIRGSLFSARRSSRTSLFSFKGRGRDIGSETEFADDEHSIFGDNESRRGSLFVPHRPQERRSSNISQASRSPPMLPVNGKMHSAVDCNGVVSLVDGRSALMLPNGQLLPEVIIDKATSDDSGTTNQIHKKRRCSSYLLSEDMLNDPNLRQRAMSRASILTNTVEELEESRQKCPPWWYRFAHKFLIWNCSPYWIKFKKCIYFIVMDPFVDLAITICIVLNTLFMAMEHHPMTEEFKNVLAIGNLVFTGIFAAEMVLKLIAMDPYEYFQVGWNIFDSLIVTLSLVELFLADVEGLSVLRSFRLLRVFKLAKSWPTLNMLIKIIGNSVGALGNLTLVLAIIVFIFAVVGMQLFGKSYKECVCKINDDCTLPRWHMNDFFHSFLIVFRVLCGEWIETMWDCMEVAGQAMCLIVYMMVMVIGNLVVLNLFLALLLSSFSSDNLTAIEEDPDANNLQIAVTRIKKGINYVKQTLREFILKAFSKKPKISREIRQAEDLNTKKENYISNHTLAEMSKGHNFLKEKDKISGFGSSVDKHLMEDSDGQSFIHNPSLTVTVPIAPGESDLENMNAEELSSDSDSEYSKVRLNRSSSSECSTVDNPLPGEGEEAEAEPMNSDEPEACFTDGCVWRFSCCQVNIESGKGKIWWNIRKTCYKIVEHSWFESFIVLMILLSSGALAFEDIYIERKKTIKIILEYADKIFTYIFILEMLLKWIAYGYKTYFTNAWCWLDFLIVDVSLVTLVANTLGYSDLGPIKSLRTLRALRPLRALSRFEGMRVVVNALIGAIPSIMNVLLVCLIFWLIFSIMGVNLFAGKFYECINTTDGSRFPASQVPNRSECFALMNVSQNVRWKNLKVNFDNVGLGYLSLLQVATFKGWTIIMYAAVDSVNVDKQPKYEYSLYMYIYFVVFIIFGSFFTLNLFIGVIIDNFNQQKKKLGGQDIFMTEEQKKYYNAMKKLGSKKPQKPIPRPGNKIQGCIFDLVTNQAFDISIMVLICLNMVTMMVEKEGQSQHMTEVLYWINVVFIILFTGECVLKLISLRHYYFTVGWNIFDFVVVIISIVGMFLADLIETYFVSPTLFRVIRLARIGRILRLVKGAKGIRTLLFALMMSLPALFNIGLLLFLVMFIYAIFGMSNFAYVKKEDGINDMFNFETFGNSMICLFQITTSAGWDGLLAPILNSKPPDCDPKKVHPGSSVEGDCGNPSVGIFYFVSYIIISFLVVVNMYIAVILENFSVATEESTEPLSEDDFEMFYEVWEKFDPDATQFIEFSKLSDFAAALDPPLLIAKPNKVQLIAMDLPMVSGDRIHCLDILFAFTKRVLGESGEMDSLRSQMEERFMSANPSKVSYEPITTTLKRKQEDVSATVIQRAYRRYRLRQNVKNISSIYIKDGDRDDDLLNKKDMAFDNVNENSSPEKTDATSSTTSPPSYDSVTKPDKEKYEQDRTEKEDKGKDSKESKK

In the case of `CC[C@H](C)[C@@H]1NC(=O)[C@@H]2CSSC[C@@H]3NC(=O)[C@H](C(C)C)NC(=O)[C@H](CC(C)C)NC(=O)[C@H](CC(N)=O)NC(=O)[C@@H]4CCCN4C(=O)[C@H](CCCNC(=N)N)NC(=O)[C@H](CSSC[C@H](NC(=O)[C@@H](N)CC(=O)O)C(=O)N[C@@H](CC(C)C)C(=O)NCC(=O)N[C@@H](Cc4ccccc4)C(=O)N[C@@H](CCSC)C(=O)N[C@@H](CCCNC(=N)N)C(=O)N[C@@H](CCCCN)C(=O)N2)NC(=O)[C@H](CSSC[C@@H](C(=O)N[C@@H](CCCCN)C(=O)N[C@@H](Cc2ccc(O)cc2)C(=O)N[C@H](C(=O)N[C@@H](Cc2ccccc2)C(=O)N[C@@H](Cc2ccc(C(=O)O)cc2)C(N)=O)C(C)C)NC(=O)[C@H](Cc2c[nH]c4ccccc24)NC(=O)[C@H](CCCCN)NC(=O)[C@H](Cc2c[nH]cn2)NC(=O)[C@H]([C@@H](C)O)NC(=O)[C@H](CCCNC(=N)N)NC(=O)[C@H](CO)NC3=O)NC(=O)[C@H](CCCCN)NC(=O)[C@H](CC(=O)O)NC(=O)[C@H](CC(N)=O)NC(=O)[C@H](CC(=O)O)NC(=O)[C@@H]2CCCN2C1=O` [compound 413], the IC50 on hNav1.3 (use-dependent, […]) was found to be 5.35 µM; on hNav1.5 (setting [1]), 8.65 µM; at hNav1.7 (setting [2]), 1.15 µM.
On the same counts, the results for `CC[C@H](C)[C@@H]1NC(=O)[C@@H]2CSSC[C@@H]3NC(=O)[C@H](C(C)C)NC(=O)[C@H](CC(C)C)NC(=O)[C@H](CC(N)=O)NC(=O)[C@@H]4CCCN4C(=O)[C@H](CCCNC(=N)N)NC(=O)[C@H](CSSC[C@H](NC(=O)[C@@H](N)CC(=O)O)C(=O)N[C@@H](CC(C)C)C(=O)NCC(=O)N[C@@H](Cc4ccccc4)C(=O)N[C@@H](CCSC)C(=O)N[C@@H](CCCNC(=N)N)C(=O)N[C@@H](CCCCN)C(=O)N2)NC(=O)[C@H](CSSC[C@@H](C(=O)N[C@@H](CCCCN)C(=O)N[C@@H](Cc2ccc(O)cc2)C(=O)N[C@H](C(=O)N[C@@H](Cc2ccccc2)C(=O)N[C@@H](Cc2ccccn2)C(N)=O)C(C)C)NC(=O)[C@H](Cc2c[nH]c4ccccc24)NC(=O)[C@H](CCCCN)NC(=O)[C@H](Cc2c[nH]cn2)NC(=O)[C@H]([C@@H](C)O)NC(=O)[C@H](CCCNC(=N)N)NC(=O)[C@H](CO)NC3=O)NC(=O)[C@H](CCCCN)NC(=O)[C@H](CC(=O)O)NC(=O)[C@H](CC(N)=O)NC(=O)[C@H](CC(=O)O)NC(=O)[C@@H]2CCCN2C1=O` [compound 414] are 0.63 µM, 9.29 µM and 0.26 µM.
With `CC[C@H](C)[C@@H]1NC(=O)[C@@H]2CSSC[C@@H]3NC(=O)[C@H](C(C)C)NC(=O)[C@H](CC(C)C)NC(=O)[C@H](CC(N)=O)NC(=O)[C@@H]4CCCN4C(=O)[C@H](CCCNC(=N)N)NC(=O)[C@H](CSSC[C@H](NC(=O)[C@@H](N)CC(=O)O)C(=O)N[C@@H](CC(C)C)C(=O)NCC(=O)N[C@@H](Cc4ccccc4)C(=O)N[C@@H](CCSC)C(=O)N[C@@H](CCCNC(=N)N)C(=O)N[C@@H](CCCCN)C(=O)N2)NC(=O)[C@H](CSSC[C@@H](C(=O)N[C@@H](CCCCN)C(N)=O)NC(=O)[C@H](Cc2c[nH]c4ccccc24)NC(=O)[C@H](CCCCN)NC(=O)[C@H](Cc2cnc[nH]2)NC(=O)[C@H]([C@@H](C)O)NC(=O)[C@H](CCCNC(=N)N)NC(=O)[C@H](CO)NC3=O)NC(=O)[C@H](CCCCN)NC(=O)[C@H](CC(=O)O)NC(=O)[C@H](CC(N)=O)NC(=O)[C@H](CC(=O)O)NC(=O)[C@@H]2CCCN2C1=O` [compound 417] (H-DCLGFMRKCIPDNDKCCRPNLVCSRTHKWCK-NH2; disulfide 2-17, 9-23, 16-30), the IC50 turned out to be 9.09 µM at hNav1.3 (use-dependent, […]); 11.9 µM against hNav1.5 (IWQ Use Nav1.5 (μM)); 18.3 µM at hNav1.7 (setting [2]).
As to `CC[C@H](C)[C@@H]1NC(=O)[C@@H]2CSSC[C@@H]3NC(=O)[C@H](C(C)C)NC(=O)[C@H](CC(C)C)NC(=O)[C@H](CC(N)=O)NC(=O)[C@@H]4CCCN4C(=O)[C@H](CCCNC(=N)N)NC(=O)[C@H](CSSC[C@H](NC(=O)[C@@H](N)CC(=O)O)C(=O)N[C@@H](CC(C)C)C(=O)NCC(=O)N[C@@H](C)C(=O)N[C@@H](CCSC)C(=O)N[C@@H](CCCNC(=N)N)C(=O)N[C@@H](CCCCN)C(=O)N2)NC(=O)[C@H](CSSC[C@@H](C(=O)N[C@@H](CCCCN)C(=O)N[C@@H](Cc2ccc(O)cc2)C(=O)N[C@@H](CCC(=O)O)C(=O)N[C@@H](Cc2ccccc2)C(N)=O)NC(=O)[C@H](Cc2c[nH]c4ccccc24)NC(=O)[C@H](CCCCN)NC(=O)[C@H](Cc2c[nH]cn2)NC(=O)[C@H]([C@@H](C)O)NC(=O)[C@H](CCCNC(=N)N)NC(=O)[C@H](CO)NC3=O)NC(=O)[C@H](CCCCN)NC(=O)[C@H](CC(=O)O)NC(=O)[C@H](CC(N)=O)NC(=O)[C@H](CC(=O)O)NC(=O)[C@@H]2CCCN2C1=O` [compound 419] (H-DCLGAMRKCIPDNDKCCRPNLVCSRTHKWCKYEF-NH2; disulfide 2-17, 9-23, 16-30), the IC50 worked out at 3.58 µM at hNav1.3 (use-dependent block, hNav1.3); 9.04 µM on hNav1.5 (setting [3]); 4 µM on hNav1.7 (setting [4]).
The matching figures for `CC[C@H](C)[C@@H]1NC(=O)[C@@H]2CSSC[C@@H]3NC(=O)[C@H](C(C)C)NC(=O)[C@H](CC(C)C)NC(=O)[C@H](CC(N)=O)NC(=O)[C@@H]4CCCN4C(=O)[C@H](CCCNC(=N)N)NC(=O)[C@H](CSSC[C@H](NC(=O)[C@@H](N)CC(=O)O)C(=O)N[C@@H](CC(C)C)C(=O)NCC(=O)N[C@@H](C)C(=O)N[C@@H](CCSC)C(=O)N[C@@H](CCCNC(=N)N)C(=O)N[C@@H](CCCCN)C(=O)N2)NC(=O)[C@H](CSSC[C@@H](C(=O)N[C@@H](CCCCN)C(=O)N[C@@H](Cc2ccc(O)cc2)C(=O)N[C@@H](Cc2cccc4ccccc24)C(=O)N[C@@H](Cc2ccccc2)C(N)=O)NC(=O)[C@H](Cc2c[nH]c4ccccc24)NC(=O)[C@H](CCCNC(=N)N)NC(=O)[C@H](Cc2c[nH]cn2)NC(=O)[C@H]([C@@H](C)O)NC(=O)[C@H](CCCNC(=N)N)NC(=O)[C@H](CO)NC3=O)NC(=O)[C@H](CCCCN)NC(=O)[C@H](CC(=O)O)NC(=O)[C@H](CC(N)=O)NC(=O)[C@H](CC(=O)O)NC(=O)[C@@H]2CCCN2C1=O` [compound 420] (H-DCLGAMRKCIPDNDKCCRPNLVCSRTHRWCKY[1Nal]F-NH2; disulfide 2-17, 9-23, 16-30): 0.32 µM, 7.5 µM and 0.2 µM.
On the same counts, the results for `CC[C@H](C)[C@@H]1NC(=O)[C@@H]2CSSC[C@@H]3NC(=O)[C@H](C(C)C)NC(=O)[C@H](CC(C)C)NC(=O)[C@H](Cc4c[nH]c5ccccc45)NC(=O)[C@@H]4CCCN4C(=O)[C@H](CCCNC(=N)N)NC(=O)[C@H](CSSC[C@H](NC(=O)[C@@H](N)CC(=O)O)C(=O)N[C@@H](CC(C)C)C(=O)NCC(=O)N[C@@H](C)C(=O)N[C@@H](CCSC)C(=O)N[C@@H](CCCNC(=N)N)C(=O)N[C@@H](CCCCN)C(=O)N2)NC(=O)[C@H](CSSC[C@@H](C(=O)N[C@@H](CCCCN)C(=O)N[C@@H](Cc2ccc(O)cc2)C(=O)N[C@H](C(=O)N[C@@H](Cc2ccccc2)C(N)=O)C(C)C)NC(=O)[C@H](Cc2c[nH]c4ccccc24)NC(=O)[C@H](CCCCN)NC(=O)[C@H](Cc2c[nH]cn2)NC(=O)[C@H]([C@@H](C)O)NC(=O)[C@H](CCCNC(=N)N)NC(=O)[C@H](CO)NC3=O)NC(=O)[C@H](CCCCN)NC(=O)[C@H](CC(=O)O)NC(=O)[C@H](CC(N)=O)NC(=O)[C@H](CC(=O)O)NC(=O)[C@@H]2CCCN2C1=O` [compound 422] (H-DCLGAMRKCIPDNDKCCRPWLVCSRTHKWCKYVF-NH2; disulfide 2-17, 9-23, 16-30) are 0.39 µM, over 5 µM and 0.28 µM.
The matching figures for `CC[C@H](C)[C@@H]1NC(=O)[C@@H]2CSSC[C@@H]3NC(=O)[C@H](C(C)C)NC(=O)[C@H](CC(C)C)NC(=O)[C@H](CC(N)=O)NC(=O)[C@@H]4CCCN4C(=O)[C@H](CCCNC(=N)N)NC(=O)[C@H](CSSC[C@H](NC(=O)[C@@H](N)CC(=O)O)C(=O)N[C@@H](CC(C)C)C(=O)NCC(=O)N[C@@H](C)C(=O)N[C@@H](CCSC)C(=O)N[C@@H](CCCNC(=N)N)C(=O)N[C@@H](CCCCN)C(=O)N2)NC(=O)[C@H](CSSC[C@@H](C(=O)N[C@@H](CCCCN)C(=O)N[C@@H](Cc2ccc(O)cc2)C(=O)N[C@H](C(=O)N[C@@H](Cc2ccccc2)C(N)=O)C(C)C)NC(=O)[C@H](Cc2c[nH]c4ccccc24)NC(=O)[C@H](CCCCN)NC(=O)[C@H](Cc2c[nH]cn2)NC(=O)[C@H]([C@@H](C)O)NC(=O)[C@H](CCCNC(=N)N)NC(=O)[C@H](CO)NC3=O)NC(=O)[C@H](CCCCN)NC(=O)[C@H](CC(=O)O)NC(=O)[C@H](CC(N)=O)NC(=O)[C@H](Cc2c[nH]c3ccccc23)NC(=O)[C@@H]2CCCN2C1=O` [compound 423] (H-DCLGAMRKCIPWNDKCCRPNLVCSRTHKWCKYVF-NH2; disulfide 2-17, 9-23, 16-30): 1.09 µM, over 5 µM and 0.43 µM.
For `CC[C@H](C)[C@@H]1NC(=O)[C@@H]2CSSC[C@@H]3NC(=O)[C@H](C(C)C)NC(=O)[C@H](CC(C)C)NC(=O)[C@H](CC(N)=O)NC(=O)[C@@H]4CCCN4C(=O)[C@H](CCCNC(=N)N)NC(=O)[C@H](CSSC[C@H](NC(=O)[C@@H](N)CC(=O)O)C(=O)N[C@@H](CC(C)C)C(=O)N[C@@H](Cc4c[nH]c5ccccc45)C(=O)N[C@@H](C)C(=O)N[C@@H](CCSC)C(=O)N[C@@H](CCCNC(=N)N)C(=O)N[C@@H](CCCCN)C(=O)N2)NC(=O)[C@H](CSSC[C@@H](C(=O)N[C@@H](CCCCN)C(=O)N[C@@H](Cc2ccc(O)cc2)C(=O)N[C@H](C(=O)N[C@@H](Cc2ccccc2)C(N)=O)C(C)C)NC(=O)[C@H](Cc2c[nH]c4ccccc24)NC(=O)[C@H](CCCCN)NC(=O)[C@H](Cc2c[nH]cn2)NC(=O)[C@H]([C@@H](C)O)NC(=O)[C@H](CCCNC(=N)N)NC(=O)[C@H](CO)NC3=O)NC(=O)[C@H](CCCCN)NC(=O)[C@H](CC(=O)O)NC(=O)[C@H](CC(N)=O)NC(=O)[C@H](CC(=O)O)NC(=O)[C@@H]2CCCN2C1=O` [compound 424] (H-DCLWAMRKCIPDNDKCCRPNLVCSRTHKWCKYVF-NH2; disulfide 2-17, 9-23, 16-30), the IC50 at hNav1.3 (use-dependent block, hNav1.3) is 1.17 µM; on hNav1.5 (setting [3]), over 5 µM; at hNav1.7 (setting [4]), 0.49 µM.
